One series addresses T1, CYP2C19 (Homo sapiens, UniProt P33261).
T1 construct: tissue Cypex Ltd. (U.K.); host or cells: pooled human liver microsomes
Nature of the series: Inhibition of CYP2C19 (S-Mephenytoin 4-hydroxylation) by CK in HLMs. The format is in vitro ADME. The protocol: The method was conducted according to our previous study with some modifications. The CYP isoform-specific probe reactions used were phenacetin O-deethylation (for CYP1A2), coumarin 7-hydroxylation (for CYP2A6), tolbutamide 4-hydroxylation (for CYP2C9), metoprolol α-hydroxylation (for CYP2D6), chlorzoxazone 6-hydroxylation (for CYP2E1),S-Mephenytoin 4-hydroxylation (for CYP2C19), and midazolam 1-hydroxylation (for CYP3A4). The kinetic study of CK was conducted with HLMs. A 0.2 mL incubation mixture that consisted of CK (as a substrate), the HLMs (0.5 mg/mL) or CYP isoforms (10 pmol), and 0.1 M sodium phosphate buffer (pH 7.4) was pre-warmed for 5 min at 37°C. The reaction was initiated by the addition of 1 mg/mL triphosphopyridine nucleotide (NADPH). All the reagents were dissolved in methanol, and the final solvent concentration in all incubations (including the controls) was 1%. The final incubations were performed in a shaking water bath (37°C) for 30 min. The reactions were stopped by adding 0.2 mL ice-cold acetonitrile, which contains irbesartan (114.9 ng/mL) as the internal standard. The samples were vortexed for 5 min. After centrifugation (12000×g for 10 min), the supernatants were transferred, and aliquots of 20 μL were injected into the HPLC-MS/MS system for analysis.
CK (10–100 μM) and a single CYP isoform-specific substrate (with a concentration similar to its corresponding Kmvalue) were used to determine the inhibitory effect of CK on specific CYP isoforms as described in detail previously. Substrates including phenacetin, coumarin, tolbutamide, metoprolol, chlorzoxazone, S-Mephenytoin, and midazolam were used at concentrations of 10, 5, 100, 7.5, 40, 100, and 5 μM, respectively. All incubation conditions were the same as mentioned above. The inhibitory effects on the CYP isoforms were investigated individually by incubating the HLMs in the absence or presence of CK. […]

Series [1] addresses T2, CYP3A4 (Homo sapiens, UniProt P08684). As to the kind of experiment: Metabolic clearance rate of CK with recombinant CYP3A4 under ketoconazole. Also on record: purchased Cypex Ltd. (U.K.). The class given is in vitro ADME. The following applies: recombinant CYP3A4, CK 50 μM, ketoconazole 1 μM. The method, then:
(§1) The method was conducted according to our previous study with some modifications. The CYP isoform-specific probe reactions used were phenacetin O-deethylation (for CYP1A2), coumarin 7-hydroxylation (for CYP2A6), tolbutamide 4-hydroxylation (for CYP2C9), metoprolol α-hydroxylation (for CYP2D6), chlorzoxazone 6-hydroxylation (for CYP2E1),S-Mephenytoin 4-hydroxylation (for CYP2C19), and midazolam 1-hydroxylation (for CYP3A4). The kinetic study of CK was conducted with HLMs. A 0.2 mL incubation mixture that consisted of CK (as a substrate), the HLMs (0.5 mg/mL) or CYP isoforms (10 pmol), and 0.1 M sodium phosphate buffer (pH 7.4) was pre-warmed for 5 min at 37°C. The reaction was initiated by the addition of 1 mg/mL triphosphopyridine nucleotide (NADPH). […]
(§2) To screen the specific CYP isoform responsible for the CK metabolism, we determined the inhibitory effect of specific inhibitors on the metabolism of CK in the HLMs as described in detail previously. […] The inhibitory effects of the above specific inhibitors on the metabolic clearance rate of CK were evaluated separately to screen the CYP isoforms responsible for the CK metabolism. The relative activity of the CYP isoforms was calculated by dividing the peak area of CK when incubated with the inhibitor by that of CK from the negative controls. […]

Series [2] has as its target T2, CYP3A4. As to the kind of experiment: Effect of specific inhibitor ketoconazole on CK metabolism in HLMs. The class given is in vitro ADME. Also on record: tissue Cypex Ltd. (U.K.); host or cells: pooled human liver microsomes. The following applies: CK 50 μM, in the presence of ketoconazole 1 μM. The protocol: as §1, §2
Series [3] in a line: Plasma pharmacokinetics of CK in healthy volunteers. The following applies: male, human, 800 mg. The method, then: Note that in our other study carried out in healthy volunteers, 10 healthy male volunteers received administrations of 800 mg pure CK tablets (100mg/tablet, provided by Zhejiang Hisun Pharmaceutical Company Limited, China) swallowed by 150 mL water, then series venous blood samples of 5 mL were collected into EDTA-containing tubes at 0, 0.25, 0.5, 1, 1.5, 2, 2.5, 3, 3.5, 4, 5, 6, 8, 12, 24, 36, 48, 72 and 96h. The plasma samples were analyzed by HPLC-MS/MS, the peak plasma concentration (Cmax) and time to peak plasma concentration (Tmax) were directly obtained from the observed concentration-time data. The area under the plasma concentration-time curve (AUC) from time zero to last measured concentration (AUC(0−t)) was calculated according to the linear trapezoidal rule, the estimate of oral clearance(CL/F) was calculated as CL/F = Dose /AUC(0–t).

Series [4] concerns CYP3A4. Also on record: method as in Hao et al.(2008). The following applies: baculosomes, ref Hao et al.(2008); cited from earlier work.

We go through one molecule from article PMC4742234, “Screening of Drug Metabolizing Enzymes for the Ginsenoside Compound K In Vitro: An Efficient Anti-Cancer Substance Originating from Panax Ginseng” (PLoS ONE, 2016).

What is called pIC50 is the negative decadic logarithm of the IC50, by convention in mol/L. Lower therefore signals a large IC50. As usually defined, the Cmax is the highest concentration seen after dosing.

pIC50: −log10 of the molar value. “And” between values parts separate entries of the source, which are not always exact repeats. Identical values can stand only once. “Also recorded” adds a separate entry of the source.

T1 sequence (P33261 whole entry): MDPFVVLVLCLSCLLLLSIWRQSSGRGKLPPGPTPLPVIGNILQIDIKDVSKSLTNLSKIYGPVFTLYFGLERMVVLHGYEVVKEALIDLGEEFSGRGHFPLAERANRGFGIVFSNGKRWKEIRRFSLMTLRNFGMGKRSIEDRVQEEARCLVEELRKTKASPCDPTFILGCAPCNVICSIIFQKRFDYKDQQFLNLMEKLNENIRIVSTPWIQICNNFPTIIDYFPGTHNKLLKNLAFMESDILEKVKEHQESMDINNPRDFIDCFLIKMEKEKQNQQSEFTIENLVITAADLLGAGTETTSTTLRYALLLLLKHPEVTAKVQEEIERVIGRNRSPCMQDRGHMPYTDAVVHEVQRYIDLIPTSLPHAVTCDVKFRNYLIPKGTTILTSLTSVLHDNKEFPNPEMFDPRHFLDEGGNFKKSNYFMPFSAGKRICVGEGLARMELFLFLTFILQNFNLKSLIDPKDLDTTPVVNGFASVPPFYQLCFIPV
T2 sequence (P08684 whole entry, canonical isoform): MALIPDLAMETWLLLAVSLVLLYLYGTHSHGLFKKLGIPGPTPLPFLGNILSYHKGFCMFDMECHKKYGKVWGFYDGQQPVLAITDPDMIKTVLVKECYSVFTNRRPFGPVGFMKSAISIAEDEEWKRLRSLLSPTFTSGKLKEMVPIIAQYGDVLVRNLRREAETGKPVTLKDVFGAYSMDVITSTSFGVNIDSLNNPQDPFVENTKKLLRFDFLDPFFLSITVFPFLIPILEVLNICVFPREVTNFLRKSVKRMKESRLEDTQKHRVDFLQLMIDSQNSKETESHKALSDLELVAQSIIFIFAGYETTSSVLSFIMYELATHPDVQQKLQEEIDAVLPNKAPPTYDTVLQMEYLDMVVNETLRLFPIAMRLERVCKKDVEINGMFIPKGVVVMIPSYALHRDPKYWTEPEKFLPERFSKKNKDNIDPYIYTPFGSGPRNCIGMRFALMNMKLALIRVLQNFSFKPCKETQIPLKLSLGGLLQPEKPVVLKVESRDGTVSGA

In the case of `CC(C)=CCC[C@](C)(OC1O[C@H](CO)[C@@H](O)[C@H](O)[C@H]1O)[C@H]1CC[C@]2(C)[C@@H]1[C@H](O)C[C@@H]1[C@@]3(C)CC[C@H](O)C(C)(C)[C@@H]3CC[C@]12C` (stereo partly drawn) [CK, 20-O-β-(D-glucopyranosyl)-20(S)-protopanaxadiol], the “inhibitory effect on the activity of CYP2C19” value against CYP2C19 (HLMs, CK 10–100 μM) is listed as “minimal; also recorded: negligible”. Besides, the pIC50 against CYP2C19 (HLMs, S-Mephenytoin 100 μM, CK 10–100 μM) was less than 4.00. The “inhibitor potency class for CYP2C19” value at CYP2C19 (classified by IC50 according to Kong et al) was “weak (weak, if IC50≥100 μg/mL or ≥50 μM)”. For the same molecule, the “MCR of CK, of that of the control” value on CYP3A4 [1] stood at 13.2%. Further, the “metabolic clearance rate (MCR) of CK, of that of the control” value at CYP3A4 [2] was 74.6±28.1% and 74.6%. Besides, the Cmax in series [3] (oral) was roughly 5 µM; in series [3] (po), 4.07 µM. In the series on CYP3A4 [4], the CYP3A4 inhibition entry is on record as “moderate”.
